Results as given in patent publication US20240246935A1 (Plexium, Inc., priority 2021, published 2024).

Molecular target: human E3 ligase component cereblon (CRBN) (Homo sapiens (Human), UniProt Q96SW2)
Assay: Cereblon (CRBN) target engagement, NanoBRET TE Intracellular E3 Ligase Assay in transfected HEK-293T cells
Conditions: read-out: CRBN Binding EC50
Protocol: HEK293T cells were harvested ca. 75% confluent with trypsin and plated (500,000 cells/well) in a 6-well tissue culture plate in 2 mL of Dulbecco's Modified Eagle Medium (DMEM)+10% Fetal Bovine Serum (FBS) and incubated overnight at 37° C.
The NanoLuc-CRBN fusion vector (Nluc-CRBN; Promega) contains the coding region of human E3 ligase component cereblon (CRBN) fused to the C-terminus of the NanoLuc luciferase coding region. A mixture of 10 ng Nluc-CRBN and 990 ng DDB1 Expression Vector (Promega) was added to 125 μL Opti-Minimum Essential Medium (Opti-MEM™; Thermo Fisher) along with 2 μL P3000 reagent (Thermo Fisher) in a 1.5 mL epppendorf tube. This solution was added to Lipofectamine 3000 transfection reagent (5 μL; Thermo Fisher) in Opti-MEM (125 μL), mixed well, and incubated for 15 minutes at room temperature. The transfection mixture was added dropwise to cells and incubated overnight at 37° ° C., 5% CO2. Following transfection, cells were washed once with PBS, and trypsin (250 μL) was added and incubated 30-45 sec to dislodge cells. Complete media (2 mL) was added to resuspend cells to form a single cell suspension. Cells were centrifuged at 320×g for 5 min at room temperature, the supernatant was removed, and the cell pellet resuspended in Opti-MEM (3 mL; wash step repeated×2). After final resuspension in 5 mL Opti-MEM, cells were counted and resuspended at 200,000 cells/mL in Opti-MEM.
Cereblon target engagement was monitored by Bioluminescence Resonance Energy Transfer (BRET) in transfected HEK-293T cells using the NanoBRET TE Intracellular E3 Ligase Assay (Promega). Briefly, 384-well plates (white opaque plates, Corning 3574, low binding surface) were seeded with transfected HEK-293T cells (38 μL/well). 2 μL of 10 μM CRBN tracer (diluted 1:5 in Tracer Dilution Buffer) was added to each well. Plates were centrifuged at 320×g for 1 min at room temperature. Test compounds were added in a 11-point dilution series (typically 10 μM to […]) using a TECAN D300e Digital Dispenser. Plates were shaken for 2 minutes on a microplate shaker to mix compounds. Plates were centrifuged at 320×g for 1 min at room temperature, and subsequently incubated for 2 hours at 37° C.
After incubation, plates were allowed to cool to room temperature for 15 minutes. 20 μL of 3× Complete NanoBRET™ Nano-Glo® Substrate plus Inhibitor Solution (Promega, 1:166 Substrate and 1:500 dilution of Extracellular NanoLuc® Inhibitor diluted in Opti-MEM) were added to each well. Plates were incubated with shaking at room temperature for 3 minutes covered with foil. Plates were read on a CLARIOstar microplate reader (BMG LabTech), measuring at 450 nm (donor emission) and 610 nm (acceptor emission). The IC50 values were determined by regression to best fit four-parameter logistic curves using GraphPad Prism.

Chain of human E3 ligase component cereblon (CRBN) (Q96SW2 whole entry): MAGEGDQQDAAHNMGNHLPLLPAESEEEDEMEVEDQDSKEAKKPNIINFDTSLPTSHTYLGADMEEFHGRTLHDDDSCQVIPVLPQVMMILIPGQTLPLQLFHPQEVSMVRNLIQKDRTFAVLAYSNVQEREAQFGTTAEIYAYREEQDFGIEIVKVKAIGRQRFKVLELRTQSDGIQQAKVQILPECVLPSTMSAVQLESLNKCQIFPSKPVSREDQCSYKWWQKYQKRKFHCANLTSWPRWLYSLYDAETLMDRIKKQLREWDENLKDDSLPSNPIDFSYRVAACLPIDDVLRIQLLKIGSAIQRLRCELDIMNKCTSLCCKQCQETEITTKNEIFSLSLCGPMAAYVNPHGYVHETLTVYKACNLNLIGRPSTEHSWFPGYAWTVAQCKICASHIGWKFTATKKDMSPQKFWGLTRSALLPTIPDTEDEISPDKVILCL
Chain of human E3 ligase component cereblon (CRBN) (Q16531 whole entry partner): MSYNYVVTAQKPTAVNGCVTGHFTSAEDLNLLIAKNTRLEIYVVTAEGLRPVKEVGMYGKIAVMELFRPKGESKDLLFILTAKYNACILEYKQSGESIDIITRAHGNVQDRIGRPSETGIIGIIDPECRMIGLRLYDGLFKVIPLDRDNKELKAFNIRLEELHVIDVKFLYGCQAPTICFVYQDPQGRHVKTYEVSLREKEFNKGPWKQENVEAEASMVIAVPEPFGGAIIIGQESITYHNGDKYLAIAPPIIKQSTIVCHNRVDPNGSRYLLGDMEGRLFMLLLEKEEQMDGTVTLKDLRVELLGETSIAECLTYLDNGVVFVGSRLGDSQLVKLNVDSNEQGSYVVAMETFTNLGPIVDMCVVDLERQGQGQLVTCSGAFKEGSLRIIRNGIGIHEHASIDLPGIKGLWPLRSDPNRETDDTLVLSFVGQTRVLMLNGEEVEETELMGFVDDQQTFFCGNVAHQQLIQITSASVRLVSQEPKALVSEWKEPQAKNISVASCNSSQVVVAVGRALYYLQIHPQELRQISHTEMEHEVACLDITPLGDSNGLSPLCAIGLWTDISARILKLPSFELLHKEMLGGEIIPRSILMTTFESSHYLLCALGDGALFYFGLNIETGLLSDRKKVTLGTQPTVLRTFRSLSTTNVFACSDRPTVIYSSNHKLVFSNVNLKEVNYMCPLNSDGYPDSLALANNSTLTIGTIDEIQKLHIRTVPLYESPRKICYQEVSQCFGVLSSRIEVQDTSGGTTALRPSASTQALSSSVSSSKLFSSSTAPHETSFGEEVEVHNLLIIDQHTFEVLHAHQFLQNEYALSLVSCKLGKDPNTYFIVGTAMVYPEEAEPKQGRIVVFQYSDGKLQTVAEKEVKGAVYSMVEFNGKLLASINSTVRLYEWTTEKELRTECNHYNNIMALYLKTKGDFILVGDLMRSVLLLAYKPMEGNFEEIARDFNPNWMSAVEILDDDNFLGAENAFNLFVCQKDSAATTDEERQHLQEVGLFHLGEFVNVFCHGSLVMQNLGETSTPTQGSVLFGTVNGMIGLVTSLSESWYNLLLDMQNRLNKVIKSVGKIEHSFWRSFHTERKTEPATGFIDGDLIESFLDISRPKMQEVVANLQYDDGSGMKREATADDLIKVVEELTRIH

SMILES	EC50 [µM]
N#Cc1cc(F)ccc1C1CN([C@@H]2CCC[C@@H]2Oc2ccc3c(c2)CN(C24CC(C2)C(=O)NC4=O)C3=O)C1 (racemic) [Compound 70, Rac-2-(1-((cis)-2-((2-(2,4-dioxo-3-azabicyclo[3.1.1]heptan-1-yl)-1-oxoisoindolin-5-yl)oxy)cyclopentyl)azetidin-3-yl)-5-fluorobenzonitrile]	> 10
N#Cc1ccc(C2CN([C@H]3CCCC[C@@H]3Oc3ccc4c(c3)CN(C35CC(C3)C(=O)NC5=O)C4=O)C2)cc1 (racemic) [Compound 93, Rac-4-(1-((trans)-2-((2-(2,4-dioxo-3-azabicyclo[3.1.1]heptan-1-yl)-1-oxoisoindolin-5-yl)oxy)cyclohexyl)azetidin-3-yl)benzonitrile]	> 10
N#Cc1ccc(C2CN([C@H]3CCCC[C@@H]3Oc3ccc4c(c3)CN(C35CC(C3)C(=O)NC5=O)C4=O)C2)c(F)c1 (racemic) [Compound 91, Rac-4-(1-((trans)-2-((2-(2,4-dioxo-3-azabicyclo[3.1.1]heptan-1-yl)-1-oxoisoindolin-5-yl)oxy)cyclohexyl)azetidin-3-yl)-3-fluorobenzonitrile]	> 10
O=C1NC(=O)C2(N3Cc4cc(O[C@H]5CCCC[C@@H]5N5CC(c6ccc(F)cc6Cl)C5)ccc4C3=O)CC1C2 [Compound 85, 1-(5-(((1S,2S)-2-(3-(2-chloro-4-fluorophenyl)azetidin-1-yl)cyclohexyl)oxy)-1-oxoisoindolin-2-yl)-3-azabicyclo[3.1.1]heptane-2,4-dione]	> 10
N#Cc1ccc(C2CN([C@H]3CCCC[C@H]3Oc3ccc4c(c3)CN(C35CC(C3)C(=O)NC5=O)C4=O)C2)cc1 (racemic) [Compound 92, Rac-4-(1-((cis)-2-((2-(2,4-dioxo-3-azabicyclo[3.1.1]heptan-1-yl)-1-oxoisoindolin-5-yl)oxy)cyclohexyl)azetidin-3-yl)benzonitrile]	> 10
N#Cc1cccc(C2CN([C@H]3CCCC[C@@H]3Oc3ccc4c(c3)CN(C35CC(C3)C(=O)NC5=O)C4=O)C2)c1 (racemic) [Compound 78, Rac-3-(1-((trans)-2-((2-(2,4-dioxo-3-azabicyclo[3.1.1]heptan-1-yl)-1-oxoisoindolin-5-yl)oxy)cyclohexyl)azetidin-3-yl)benzonitrile]	> 10
